For 20 compounds, IC50 and Ki results are on record in patent publication US9212139B2, “Aryl substituted indoles and their use as blockers of sodium channels” (Purdue Pharma, L.P., priority 2010, dated 2015).

Read-outs that look alike come from different tables or passages of the source.

The target of one assay is human Nav1.7 (Homo sapiens (Human), UniProt Q15858). As to the kind of experiment: FLIPR or FLIPR TETRA sodium dye assay with KCl and test article pre-incubation. It counts as cell-based. An excerpt: For dominant selection of the Nav1.7-expressing clones, the expression plasmid co-expressed the neomycin resistance gene. […] Recombinant beta and gamma subunits were not introduced into this cell line. Additional cell lines expressing recombinant Nav1.7 cloned from other species can also be used, alone or in combination with various beta subunits, gamma subunits or chaperones.
Cell maintenance: Unless otherwise noted, cell culture reagents were purchased from Mediatech of Herndon, Va. The recombinant Nav1.7/HEK293 cells were routinely cultured in growth medium consisting of Dulbecco's […] containing 10% fetal bovine serum (FBS, Hyclone, Thermo Fisher Scientific, Logan, Utah), 100 U/mL penicillin, […], 2-4 mM L-glutamine, and […]. For natural, non-recombinant cell lines, the selective antibiotic was omitted, and additional media formulations can be applied as needed.
The intensity of this emission, but not the wavelength range, is increased when the dye is exposed to Na^+ ions, which it can bind with partial selectivity. Cells expressing Nav1.7 or other sodium channels were loaded with the CoroNa™ Green dye immediately in advance of the fluorescence assay, and then, after agonist stimulation, the mobilization of Na^+ ions was detected as the Na^+ ions flowed from the extracellular fluid into the cytoplasm through the activated sodium channel pores. The dye was stored in the dark as a lyophilized powder, and then an aliquot was dissolved immediately before the cell loading procedure, according to the instructions of the manufacturer to a stock concentration of 10 mM in DMSO. It was then diluted in the assay buffer to a 4× concentrated working solution, so that the final concentration of dye in the cell loading buffer was 5 μM.
These scorpion toxins inhibit the fast inactivation of their cognate target channels. Stock solutions of the agonists were prepared to 40 mM in DMSO (veratridine) and 1 mg/mL in dH2O (scorpion venom), and then diluted to make a 4× or 2× stock (depending on the particular assay) in assay buffer, the final concentration being 100 μM (veratridine) and 10 μg/mL (scorpion venom). Both of the agonists were purchased from Sigma Aldrich, St. Louis, Mo.
Test Compounds: Test compounds were dissolved in DMSO to yield 10 mM stock solutions. […] If a particular test article appeared to be especially potent, then the concentration curve was adjusted, e.g., to 10-fold lower concentrations, in order to perform the dose-response in a more relevant concentration range. Compound dilutions were added during the dye-loading and pre-stimulation step, and then again during the fluorescence assay, early in the kinetic read.
Data Analysis: The data were analyzed according to methods known to those skilled in the art or using the GraphPad® Prism 4.0 Program (available from GraphPad Software, San Diego, Calif.) to determine the IC50 value for the test article. At least one standard reference compound was evaluated during each experiment.
FLIPR® or FLIPR^TETRA® sodium dye assay with KCl and test article pre-incubation: Cells were prepared by plating the recombinant HEK293 cells or other host cells expressing either recombinant or non-recombinant, native, Nav1.7 alpha subunit, alone or in combination with various beta and gamma subunits at a density of ˜40,000 cells/well into a 96-well black, clear-bottom, PDL-coated plate. The assay can be adapted to 384-well or 1,536-well format, if desired, using proportionately less cells and media. […] For counter-screens of other voltage-gated sodium channels, the procedure was very similar, though optimal densities of cells, media and subsequent assay components can be fine-tuned for the particular cell line or isoform.

Another assay has as its target hNav1.7 (Homo sapiens (Human), UniProt Q15858). As to the kind of experiment: Electrophysiology (EP) assay, whole-cell patch clamp. The format is cell-based. Conditions: read-out: EP Nav1.7 Ki. The procedure:
Cells: The hNav1.7 expressing HEK-293 cells were plated on 35 mm culture dishes pre-coated with poly-D-lysine in standard DMEM culture media (Mediatech, Inc., Herndon, Va.) and incubated in a 5% CO2 incubator at 37° C. Cultured cells were used approximately 12-48 hours after plating.
Electrophysiology: On the day of experimentation, the 35 mm dish was placed on the stage of an inverted microscope equipped with a perfusion system that continuously perfuses the culture dish with fresh recording media. A gravity driven superfusion system was used to apply test solutions directly to the cell under evaluation. This system consists of an array of glass pipette glass connected to a motorized horizontal translator. The outlet of the shooter was positioned approximately 100 μm from the cell of interest.
Gigaseals were formed and the whole-cell configuration was established in voltage clamp mode, and membrane currents generated by hNav1.7 were recorded in gap-free mode. […] Signals were sampled at 50 kHz and low pass filtered at 3 kHz.
The voltage clamp protocol to examine hNav1.7 currents was as follows. First, the standard current-voltage relationship was tested by pulsing the cell from the holding voltage (Vh) of −120 mV by a series of 5 msec long square-shaped test pulses incrementing in +10 mV steps over the membrane voltage range of −90 mV to +60 mV at the pace of stimulation of 0.5 Hz. This procedure determines the voltage that elicits the maximal current (Vmax). […] This procedure determines the voltage of full inactivation (Vfull). Third, the cell was repeatedly stimulated with the following protocol, first in the absence of the test compound then in its presence. The protocol consisted of depolarizing the cell from the holding potential of −120 mV to the Vfull value for 4.5 seconds then repolarizing the cell to the holding potential for 10 ms before applying the test pulse to the Vmax for 5 ms. The amount of inhibition produced by the test compound was determined by comparing the current amplitude elicited by the test pulse in the absence and presence of the compound.
Vehicle solution used to establish base line was also contacting 0.3% DMSO.
Data analysis: Data was analyzed off-line using Clampfit software (pClamp, v. 8; Axon Instruments) and graphed using GraphPad Prizm (v. 4.0) software.
(In patch-clamp work, channel activity is measured electrically.)

[1] abbreviates: sodium dye assay with KCl, recombinant human Nav1.7 in HEK293 cells, value ± SEM.
Where [2] appears, read: whole-cell patch clamp, hNav1.7 expressing HEK-293 cells.
[3] abbreviates: read-out: FLIPR Nav1.7 IC50 (μM) ± SEM.

human Nav1.7, sequence (Q15858 other isoform, or with tags, fused parts or gaps): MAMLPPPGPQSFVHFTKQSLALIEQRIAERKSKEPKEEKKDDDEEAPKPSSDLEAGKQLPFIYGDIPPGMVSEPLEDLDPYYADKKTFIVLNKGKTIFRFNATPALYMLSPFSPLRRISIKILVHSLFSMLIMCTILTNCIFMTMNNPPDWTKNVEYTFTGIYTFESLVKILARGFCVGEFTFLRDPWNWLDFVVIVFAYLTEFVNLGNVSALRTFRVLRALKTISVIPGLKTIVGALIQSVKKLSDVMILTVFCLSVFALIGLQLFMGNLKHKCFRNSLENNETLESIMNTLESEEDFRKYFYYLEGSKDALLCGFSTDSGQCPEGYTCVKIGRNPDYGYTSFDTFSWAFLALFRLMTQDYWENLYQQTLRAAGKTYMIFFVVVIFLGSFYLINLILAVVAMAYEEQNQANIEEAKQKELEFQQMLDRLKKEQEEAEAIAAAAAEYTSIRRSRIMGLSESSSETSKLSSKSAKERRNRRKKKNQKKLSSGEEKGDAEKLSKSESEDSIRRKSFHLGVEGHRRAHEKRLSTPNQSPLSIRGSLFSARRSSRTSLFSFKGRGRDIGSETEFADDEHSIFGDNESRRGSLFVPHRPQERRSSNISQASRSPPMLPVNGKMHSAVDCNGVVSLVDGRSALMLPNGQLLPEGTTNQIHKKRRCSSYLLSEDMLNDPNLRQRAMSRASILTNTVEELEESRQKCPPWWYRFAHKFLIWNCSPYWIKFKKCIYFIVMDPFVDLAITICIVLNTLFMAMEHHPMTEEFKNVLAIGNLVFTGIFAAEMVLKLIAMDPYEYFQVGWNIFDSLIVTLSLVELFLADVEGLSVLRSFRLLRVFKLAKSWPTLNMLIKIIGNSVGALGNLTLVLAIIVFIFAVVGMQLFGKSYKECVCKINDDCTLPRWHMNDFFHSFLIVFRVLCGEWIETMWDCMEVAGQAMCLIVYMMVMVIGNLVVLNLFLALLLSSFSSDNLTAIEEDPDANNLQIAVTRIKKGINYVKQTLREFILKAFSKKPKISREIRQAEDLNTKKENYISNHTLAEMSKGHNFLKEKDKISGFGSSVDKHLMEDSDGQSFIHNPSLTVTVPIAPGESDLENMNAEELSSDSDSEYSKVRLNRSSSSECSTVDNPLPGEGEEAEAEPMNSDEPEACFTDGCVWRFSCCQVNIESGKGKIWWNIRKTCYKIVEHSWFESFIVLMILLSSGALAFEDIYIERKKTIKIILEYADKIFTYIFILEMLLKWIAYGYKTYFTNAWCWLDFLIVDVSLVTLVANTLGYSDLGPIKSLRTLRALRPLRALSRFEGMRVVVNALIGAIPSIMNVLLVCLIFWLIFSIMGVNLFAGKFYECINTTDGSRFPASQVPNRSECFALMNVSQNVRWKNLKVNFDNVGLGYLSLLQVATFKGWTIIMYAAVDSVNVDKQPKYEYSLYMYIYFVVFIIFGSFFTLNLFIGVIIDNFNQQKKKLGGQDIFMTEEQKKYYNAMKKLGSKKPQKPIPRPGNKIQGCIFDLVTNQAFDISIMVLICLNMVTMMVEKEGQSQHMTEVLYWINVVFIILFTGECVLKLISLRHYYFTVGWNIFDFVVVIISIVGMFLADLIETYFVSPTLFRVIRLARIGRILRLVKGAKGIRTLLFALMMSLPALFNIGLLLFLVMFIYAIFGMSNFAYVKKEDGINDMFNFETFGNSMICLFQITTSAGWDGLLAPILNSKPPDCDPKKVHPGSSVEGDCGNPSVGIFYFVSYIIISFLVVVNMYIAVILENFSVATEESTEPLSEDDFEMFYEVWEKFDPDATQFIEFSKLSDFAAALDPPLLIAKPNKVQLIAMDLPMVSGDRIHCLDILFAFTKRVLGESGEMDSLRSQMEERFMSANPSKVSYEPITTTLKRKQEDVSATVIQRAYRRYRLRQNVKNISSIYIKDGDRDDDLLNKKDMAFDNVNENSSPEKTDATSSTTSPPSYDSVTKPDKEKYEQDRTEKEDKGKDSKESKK
hNav1.7, sequence (Q15858 other isoform, or with tags, fused parts or gaps): as above

For the compound `NC(=O)C(N)Cc1c[nH]c2ccc(-c3ccc(Oc4ccccc4)cc3)cc12` (centres unmarked) [Compound 8, 2-Amino-3-[5-(4-phenoxyphenyl)-1H-indol-3-yl]propionamide], the half-maximal inhibitory concentration (IC50) (as a rule, the concentration needed to halve the response being measured) on human Nav1.7 (setting [1]) was 0.399 ± 0.024 µM. The Ki (in general, a measure of affinity in units of concentration, obtained from inhibition or displacement) on hNav1.7 (setting [2]) turned out to be 670 nM. As to `NC(CO)Cc1c[nH]c2ccc(-c3ccc(Oc4ccccc4)cc3)cc12` (centres unmarked) [Compound 10, 2-Amino-3-[5-(4-phenoxyphenyl)-1H-indol-3-yl]propan-1-ol], the IC50 on human Nav1.7 (setting [3]) turned out to be 0.296 ± 0.087 µM. The Ki at hNav1.7 is 360 nM.

Take `NC(CO)Cc1c[nH]c2c(-c3ccc(Oc4ccccc4)cc3)cccc12` (centres unmarked) [Compound 22, 2-Amino-3-[7-(4-phenoxyphenyl)-1H-indol-3-yl]propan-1-ol]: the concentration for half-maximal inhibition (IC50) at human Nav1.7 (setting [3]) worked out at 0.151 ± 0.016 µM. The inhibitory constant (Ki) at hNav1.7 was determined as 830 nM. For the compound `NC(CO)Cc1cn(-c2ccc(Oc3ccccc3)cc2)c2ccccc12` (centres unmarked) [Compound 34, 2-Amino-3-[1-(4-phenoxyphenyl)-1H-indol-3-yl]propan-1-ol], the IC50 on human Nav1.7 (setting [1]) was found to be 0.389 ± 0.081 µM. In addition, the inhibition constant Ki on hNav1.7 (setting [2]) came to 260 nM. The like results for `NC(=O)C(N)Cc1cn(-c2ccc(Oc3ccccc3)cc2)c2ccccc12` (centres unmarked) [Compound 35, 2-Amino-3-[1-(4-phenoxyphenyl)-1H-indol-3-yl]propionamide] were, in that order, 0.278 ± 0.061 µM and 40 nM.

As for `N#Cc1cc(Oc2ccc(-n3cc(C[C@@H](N)CO)c4ccccc43)cc2)ccc1C(F)(F)F` [Compound 44, (R)-5-{4-[3-(2-Amino-3-hydroxypropyl)-1H-indol-1-yl]phenoxy}-2-(trifluoromethyl)benzonitrile], the IC50 at human Nav1.7 (setting [1]) amounted to 0.304 ± 0.046 µM. Moreover, at hNav1.7 (setting [2]), the Ki is 290 nM. As to `CN(C)CCc1cn(-c2ccc(Oc3ccccc3)cc2)c2ccc(C[C@H](N)CO)cc12` [Compound 48, (S)-2-Amino-3-[3-(2-(dimethylamino)ethyl)-1-(4-phenoxyphenyl)-1H-indol-5-yl]propan-1-ol], the half-inhibitory concentration (IC50) at human Nav1.7 (setting [1]) is 3.82 ± 1.02 µM. Moreover, the inhibition constant Ki at hNav1.7 (setting [2]) worked out at 1310 nM. As to `N#Cc1cc(Oc2ccc(-n3cc(C[C@H](O)CO)c4ccccc43)cc2)ccc1C(F)(F)F` [Compound 54, (S)-5-{4-[3-(2,3-Dihydroxypropyl)-1H-indol-1-yl]phenoxy}-2-(trifluoromethyl)benzonitrile], the IC50 on human Nav1.7 (setting [1]) was 0.21 ± 0.035 µM. For the same compound, the inhibitory constant (Ki) at hNav1.7 (setting [2]) turned out to be 70 nM. In the same order, the values of `COC(=O)c1ccc2c(C(O)C(N)=O)cn(-c3ccc(Oc4ccc(C(F)(F)F)c(C#N)c4)cc3)c2c1` (centres unmarked) [Compound 65, Methyl 3-(2-amino-1-hydroxy-2-oxoethyl)-1-(4-(3-cyano-4-(trifluoromethyl)phenoxy)phenyl)-1H-indole-6-carboxylate] are 0.536 ± 0.129 µM and 1910 nM. In the same order, the values of `N#Cc1cc(Oc2ccc(-n3cc(C(O)C(=O)NC[C@H](O)CO)c4ccccc43)cc2)ccc1C(F)(F)F` (stereo partly drawn) [Compound 69, 2-(1-(4-(3-Cyano-4-(trifluoromethyl)phenoxy)phenyl)-1H-indol-3-yl)-N—((S)-2,3-dihydroxypropyl)-2-hydroxyacetamide] are 0.732 ± 0.113 µM and 2670 nM. The like results for `OC[C@@H](O)Cc1cn(C[C@H](O)CO)c2ccc(-c3ccc(Oc4ccc(F)cc4)cc3)cc12` [Compound 74, (2S,2′S)-3,3′-(5-(4-(4-Fluorophenoxy)phenyl)-1H-indole-1,3-diyl)bis(propane-1,2-diol)] were, in that order, 0.5 ± 0.091 µM and 920 nM. Turning to `NC(=O)c1cccc2c1c(C[C@H](O)CO)cn2-c1ccc(Oc2ccc(F)cc2)cc1` [Compound 122, (S)-3-(2,3-Dihydroxypropyl)-1-(4-(4-fluorophenoxy)phenyl)-1H-indole-4-carboxamide], on human Nav1.7 (setting [1]), the concentration for half-maximal inhibition (IC50) stood at 0.222 ± 0.036 µM. In addition, the Ki at hNav1.7 (setting [2]) was 300 nM.

With `NC(=O)c1nn(-c2ccc(Oc3ccc(C(F)(F)F)cn3)cc2)c2ccccc12` [Compound 155, 1-(4-((5-(Trifluoromethyl)pyridin-2-yl)oxy)phenyl)-1H-indazole-3-carboxamide], the IC50 at human Nav1.7 (setting [3]) was determined as 0.362 ± 0.06 µM. On hNav1.7, the Ki stood at 250 nM.

As for `N#Cc1ccc(Oc2ccc(-n3cc(C[C@H](O)CO)c4ncccc43)cc2)cc1` [Compound 175, (S)-4-(4-(3-(2,3-Dihydroxypropyl)-1H-pyrrolo[3,2-b]pyridin-1-yl)phenoxy)benzonitrile], the 50% inhibitory concentration (IC50) on human Nav1.7 (setting [1]) was found to be 0.549 ± 0.197 µM. Besides, at hNav1.7 (setting [2]), the Ki was found to be 170 nM. For the compound `CCN(CC)CCn1cc(C(O)C(N)=O)c2cc(-c3ccc(Oc4ccc(F)cc4)cc3)ccc21` (centres unmarked) [Compound 179, 2-(1-(2-(Diethylamino)ethyl)-5-(4-(4-fluorophenoxy)phenyl)-1H-indol-3-yl)-2-hydroxyacetamide], at human Nav1.7 (setting [1]), the IC50 was found to be 0.912 ± 0.079 µM. Further, on hNav1.7 (setting [2]), the Ki was determined as 270 nM. Consider `N#Cc1ccc(Oc2ccc(-n3cc(C(O)(C(N)=O)C(F)(F)F)c4ccccc43)cc2)cc1C(F)(F)F` (centres unmarked) [Compound 192, 2-(1-(4-(4-Cyano-3-(trifluoromethyl)phenoxy)phenyl)-1H-indol-3-yl)-3,3,3-trifluoro-2-hydroxypropanamide], for which the 50% inhibitory concentration (IC50) at human Nav1.7 (setting [3]) is 0.475 ± 0.065 µM. As to `N#Cc1ccc(Oc2ccc(-n3cc(C(O)C(N)=O)c4ccccc43)cc2)cc1C(F)(F)F` (centres unmarked) [Compound 193, 2-(1-(4-(4-Cyano-3-(trifluoromethyl)phenoxy)phenyl)-1H-indol-3-yl)-2-hydroxyacetamide], the IC50 on human Nav1.7 (setting [3]) stood at 0.414 ± 0.026 µM. `NC(=O)C(O)c1cn(-c2ccc(Oc3ccc(C(F)(F)F)cn3)cc2)c2ccccc12` (centres unmarked) [Compound 195, 2-Hydroxy-2-(1-(4-((5-(trifluoromethyl)pyridin-2-yl)oxy)phenyl)-1H-indol-3-yl)acetamide]: the half-maximal inhibitory concentration (IC50) at human Nav1.7 (setting [1]) is 0.276 ± 0.011 µM. With `N[C@H](CO)Cc1cn(-c2ccc(Oc3ccc(C(F)(F)F)cn3)cc2)c2ccccc12` [Compound 196, (S)-2-Amino-3-(1-(4-((5-(trifluoromethyl)pyridin-2-yl)oxy)phenyl)-1H-indol-3-yl)propan-1-ol], at human Nav1.7 (setting [1]), the 50% inhibitory concentration (IC50) came to 0.34 ± 0.023 µM.

With `OCCn1cc(C[C@H](O)CO)c2cc(-c3ccc(Oc4ccc(F)cc4)cc3)ccc21` [Compound 200, (S)-3-(5-(4-(4-fluorophenoxy)phenyl)-1-(2-hydroxyethyl)-1H-indol-3-yl)propane-1,2-diol], the half-maximal inhibitory concentration (IC50) at human Nav1.7 (setting [1]) is 0.273 ± 0.061 µM.
